Common to all, as to format: cell-based
For assay [1], the target named is T1, Glycine receptor subunit alpha-1 (Homo sapiens) (UniProt P23415).
T1 sequence (whole entry): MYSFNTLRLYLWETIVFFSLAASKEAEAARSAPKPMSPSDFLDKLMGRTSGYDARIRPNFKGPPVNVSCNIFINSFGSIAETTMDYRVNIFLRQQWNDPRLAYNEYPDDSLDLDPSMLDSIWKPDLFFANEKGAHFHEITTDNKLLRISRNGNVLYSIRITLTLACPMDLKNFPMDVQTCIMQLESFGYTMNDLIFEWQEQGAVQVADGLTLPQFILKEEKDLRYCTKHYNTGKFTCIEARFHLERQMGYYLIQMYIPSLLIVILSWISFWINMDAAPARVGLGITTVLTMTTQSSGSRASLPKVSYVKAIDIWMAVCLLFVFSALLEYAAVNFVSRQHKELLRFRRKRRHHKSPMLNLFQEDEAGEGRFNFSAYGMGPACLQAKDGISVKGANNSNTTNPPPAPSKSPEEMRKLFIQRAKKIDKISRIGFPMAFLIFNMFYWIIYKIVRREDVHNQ
As to the kind of experiment: Modulation of recombinant GlyR-alpha1 (unknown origin) expressed in HEK293 cells assessed as inhibition of glycine-induced current at 1 uM by automated planar patch-clamp automated electrophysiology assay. On the technique in general: In patch-clamp work, channel activity is measured electrically.

In assay [2] the target is T2, Glycine receptor subunit alpha-3 (Homo sapiens, UniProt O75311).
T2 sequence (O75311 whole entry): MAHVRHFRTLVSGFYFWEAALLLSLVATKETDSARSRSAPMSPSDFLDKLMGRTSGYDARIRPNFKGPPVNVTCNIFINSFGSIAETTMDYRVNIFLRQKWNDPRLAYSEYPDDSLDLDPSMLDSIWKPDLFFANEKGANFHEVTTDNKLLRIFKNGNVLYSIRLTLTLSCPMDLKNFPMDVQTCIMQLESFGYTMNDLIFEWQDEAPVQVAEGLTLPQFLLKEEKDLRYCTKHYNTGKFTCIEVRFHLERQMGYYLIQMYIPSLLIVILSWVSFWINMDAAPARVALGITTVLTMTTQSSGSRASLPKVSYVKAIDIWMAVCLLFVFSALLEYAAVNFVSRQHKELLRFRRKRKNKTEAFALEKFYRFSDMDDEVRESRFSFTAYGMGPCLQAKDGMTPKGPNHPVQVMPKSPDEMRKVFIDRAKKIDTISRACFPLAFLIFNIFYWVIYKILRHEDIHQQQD
The experiment in a line: Modulation of recombinant GlyR-alpha3 (unknown origin) expressed in HEK293 cells assessed as inhibition of glycine-induced current by automated planar patch-clamp automated electrophysiology assay.

The target in assay [3] is T3, Glycine receptor subunit alpha-1 (Homo sapiens, UniProt P23415).
T3 sequence (P23415 whole entry): T1 sequence (whole entry)
The experiment in a line: Modulation of recombinant GlyR-alpha1 (unknown origin) expressed in HEK293 cells assessed as inhibition of glycine-induced current by automated planar patch-clamp automated electrophysiology assay.

Bounds are passed on as bounds.

As a reminder, the inhibition is the change of the read-out against control, counted positive when it falls. Broadly, the IC50 is the concentration that gives 50% inhibition. In the case of `CN1C(=N)N(C)[C@@]2(C1=O)c1[nH]c3ccccc3c1C[C@@]1(C(=O)N(C)C(=N)N1C)[C@@H]2c1c[nH]c2ccccc12`, the inhibition in assay [1] stood at 126%. Also, the values for the IC50 in assay [2] and in assay [3] were over 300 µM and 25.9 µM, respectively.

For the compound `CN1C(=O)/C(=C\c2c[nH]c3ccccc23)N(C)C1=O`, the figures for the IC50 in assay [2] and in assay [3] were 67 µM and over 200 µM, respectively.

On to `CN1C(=O)NC(=O)/C1=C\c1c[nH]c2ccccc12`, for which the values for the concentration for half-maximal inhibition (IC50) in assay [2] and in assay [3] were 33.9 µM and 8.8 µM, respectively.

The values are drawn from ChEMBL document CHEMBL2396546, “Australian marine sponge alkaloids as a new class of glycine-gated chloride channel receptor modulator” (Bioorg Med Chem, 2013).
